Test results reported in patent US11453674B2, “Heterocyclic compound, preparation method and use thereof in medicine” (SUZHOU SINOVENT PHARMACEUTICALS CO., LTD., priority 2019, dated 2022).

Assays:
OAT1 = molecular target: T1, OAT1 (Homo sapiens, UniProt Q4U2R8); assay: Inhibition of 6-carboxyfluorescein uptake in HEK293/OAT1 cells; assay type: cell-based; conditions: ratio of OAT1 IC50 to hURAT1 IC50 (selectivity)
T1 construct: host or cells: HEK293/OAT1 (hygromycin B selection)
T1 sequence (Q4U2R8 1-563): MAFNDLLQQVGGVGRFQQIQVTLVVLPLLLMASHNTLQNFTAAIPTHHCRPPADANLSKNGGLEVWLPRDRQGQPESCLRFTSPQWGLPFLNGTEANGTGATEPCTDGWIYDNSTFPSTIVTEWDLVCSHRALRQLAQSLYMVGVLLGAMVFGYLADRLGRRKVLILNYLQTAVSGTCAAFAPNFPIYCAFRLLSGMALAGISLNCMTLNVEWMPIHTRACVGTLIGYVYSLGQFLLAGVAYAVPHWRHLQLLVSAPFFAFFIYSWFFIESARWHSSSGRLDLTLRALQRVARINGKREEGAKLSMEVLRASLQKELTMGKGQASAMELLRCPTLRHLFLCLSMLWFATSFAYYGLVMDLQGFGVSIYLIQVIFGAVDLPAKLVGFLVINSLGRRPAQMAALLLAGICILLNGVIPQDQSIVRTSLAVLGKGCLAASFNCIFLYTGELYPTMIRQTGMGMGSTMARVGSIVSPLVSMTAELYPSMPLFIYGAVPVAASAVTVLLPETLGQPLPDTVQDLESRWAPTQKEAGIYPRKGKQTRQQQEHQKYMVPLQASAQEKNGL
Procedure: (§1) 1. Reagents and Consumables
(§2) 2. Culture Media and Solutions
(§3) Thaw medium: 90% DMEM+10% FBS+1× Pen/Strep, preserved at 4° C. for later use.
(§4) Culture medium: 90% DMEM+10% FBS+1× Pen/Strep+100 μg/mL Hygromycin B, preserved at 4° C. for later use.
(§5) 5× Matrigel: 1 vial of Matrigel was thawed overnight at 4° C., then diluted to 500 mL with cold DMEM. The resulting solution was preserved at 4° C. for later use after subpackaging.
(§6) Uptake assay buffer: 487.5 mL HBSS buffer was mixed with 12.5 mL 1M HEPES, with the final HEPES concentration being 25 mM. This was prepared right before the experiment.
(§7) 30 mM probenecid: 2 mg of the powder was dissolved in 233.62 μL of 100% DMSO. The resulting solution was preserved at −20° C. for later use after subpackaging.
(§8) The resulting solution was preserved at −20° C. for later use after subpackaging.
(§9) The resulting solution was preserved away from light at 4° C. for later use after subpackaging.
(§10) Envision multimode plate reader (with parameters as follows)
(§11) Emission wavelength: 590 nm
(§12) 4. Experimental Procedures
(§13) The cells were quickly taken out from a liquid nitrogen tank and shaken in a water bath at 37° C. until completely thawed. The cell suspension was quickly added to a pre-heated culture medium and centrifuged at 1000 rpm for 5 min. The supernatant was discarded. A fresh pre-heated culture medium was added for resuspension. The cell suspension was transferred into a 100 mm dish and incubated at 37° C. at 5% CO2.
(§14) Typically, the cells were passaged every 2-3 days in a ratio of 1:3 to 1:5.
(§15) 5× Matrigel was added to a 384-well cell plate at 5 μL/well for incubation in an incubator at 37° C. for 30 min, followed by digestion.
(§16) Cells were collected after digestion, counted, resuspended at 1×10^6 cells/mL using a culture medium, and added to a coated plate at 60 μL/well by using a Multidrop Combi to give a cell density of 6×10^4 cells/well, followed by incubating overnight at 37° C. at 5% CO2.
(§17) 3) Preparation of Uptake Assay Buffer
(§18) On the day of experiment, fresh buffer was prepared as needed.
(§19) 4) Preparation of Compounds (Using ECHO)
(§20) Working solutions of 11 concentrations were prepared for plotting a curve with stock solutions of 3 concentrations using PlateMap. The 3 concentrations were 30 mM, 0.3 mM, 0.003 mM, all formulated in DMSO.
(§21) 5) Preparation of a Mixed Solution of 6-Carboxyfluorescein (6 μM) and Compounds
(§22) According to amount used, 6-carboxyfluorescein (1 mM) was diluted with uptake assay buffer to give a diluted 6-carboxyfluorescein solution (6 μM). […] The mixture was preserved away from light for later use. The concentration of DMSO was 2% at this time.
(§23) The cells were incubated overnight before the culture medium was carefully removed. Then 80 μL of uptake assay buffer was added to each well at room temperature for washing the cells 3 times. After washing, 20 μL of uptake assay buffer was added to each well.
(§24) The mixed solution of 6-CF (6 μM) and compounds, prepared in step 5, was transferred to a cell plate at 20 μL/well with Bravo. The mixed solution was centrifuged at 400 rpm for 1 min, and incubated away from light at room temperature for 10 min. At this time, the concentration of 6-CF became 3 μM, the concentration of the compound became the final concentration, and the concentration of DMSO became 1%.
(§25) The cells were washed 3 times with pre-cooled uptake assay buffer at 80 μL/well, to remove unbound 6-CF.
(§26) The plate was read on the Envision. The data were recorded and processed to calculate IC50.
(§27) According to the fluorescence signals of HPE and ZPE on each cell plate, the inhibition rate (%) of the compound in each well on the cell plate was calculated.
(§28) The XLfit software was used to plot the curve for calculating the IC50 values of the compounds. The IC50 value of the positive compound was also one of the criteria for controlling the quality of each experiment.

OAT3 = molecular target: T2, OAT3 (Homo sapiens, UniProt Q8TCC7); assay: Inhibition of 6-carboxyfluorescein uptake in HEK293/OAT3 cells; assay type: cell-based; conditions: ratio of OAT3 IC50 to hURAT1 IC50 (selectivity)
T2 construct: host or cells: HEK293/OAT3 (hygromycin B selection)
T2 sequence (Q8TCC7 1-542): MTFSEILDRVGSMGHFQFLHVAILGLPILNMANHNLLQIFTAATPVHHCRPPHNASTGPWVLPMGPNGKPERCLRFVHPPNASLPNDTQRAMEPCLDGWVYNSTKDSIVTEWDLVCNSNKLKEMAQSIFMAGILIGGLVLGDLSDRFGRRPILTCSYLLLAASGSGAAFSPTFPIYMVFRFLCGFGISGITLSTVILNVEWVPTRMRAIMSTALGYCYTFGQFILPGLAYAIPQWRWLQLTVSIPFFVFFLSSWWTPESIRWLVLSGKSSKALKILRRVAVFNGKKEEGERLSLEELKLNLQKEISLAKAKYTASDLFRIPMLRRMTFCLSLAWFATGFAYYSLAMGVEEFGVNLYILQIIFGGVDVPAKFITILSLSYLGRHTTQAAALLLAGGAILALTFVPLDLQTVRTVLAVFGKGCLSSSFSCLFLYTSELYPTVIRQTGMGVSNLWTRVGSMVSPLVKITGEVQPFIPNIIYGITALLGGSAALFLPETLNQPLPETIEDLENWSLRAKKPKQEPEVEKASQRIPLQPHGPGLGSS
Procedure: as §1, §2, §3, §4, §5, §6, §7, §8, §9, §10, §11, §12, §13, §14, §15, §16, §17, §18, §19, §20, §21, §22, §23, §24, §25, §26, §27, §28

IC50, OAT1/IC50, hURAT1 (OAT1) | IC50, OAT3/IC50, hURAT1 (OAT3) | Compound
13.8 | 8.9 | CCc1nc2ncc(Br)cn2c1C(=O)c1cc(Br)c(O)c(Br)c1 [Example 3, (6-bromo-2-ethylimidazo[1,2-a]pyrimidin-3-yl)(3,5-dibromo-4-hydroxyphenyl)methanone]
34.4 | 21.1 | CCc1nc2ncc(C(F)(F)F)cn2c1C(=O)c1cc(Br)c(O)c(Br)c1 [Example 5, (3,5-dibromo-4-hydroxyphenyl)(2-ethyl-6-(trifluoromethyl)imidazo[1,2-a]pyrimidin-3-yl)methanone]
33.6 | 24.8 | CCc1nc2ncc(Cl)cn2c1C(=O)c1cc(Br)c(O)c(Br)c1 [Example 6, (6-chloro-2-ethylimidazo[1,2-a]pyrimidin-3-yl)(3,5-dibromo-4-hydroxyphenyl)methanone]
14.2 | 3.0 | CCc1nc2cc(C(F)(F)F)ncn2c1C(=O)c1cc(Br)c(O)c(Br)c1 [Example 7, (3,5-dibromo-4-hydroxyphenyl)(2-ethyl-7-(trifluoromethyl)imidazo[1,2-c]pyrimidin-3-yl)methanone]
8.0 | 8.7 | CCc1nc2ncccn2c1C(=O)c1cc(Br)c(O)c(Br)c1 [Example 20, 2,6-dibromo-4-([2-ethylimidazo[1,2-a]pyrimidin-3-yl]carbonyl) phenol]
3.8 | 5.5 | CCc1nc2cc(Cl)ncn2c1C(=O)c1cc(Br)c(O)c(Br)c1 [Example 21, (7-chloro-2-ethylimidazo[1,2-f]pyrimidin-3-yl)(3,5-dibromo-4-hydroxyphenyl)methanone]
5.2 | 10.3 | CCc1nc2ncccn2c1C(=O)c1cc(Br)c(O)c(C(F)(F)F)c1 [Example 23, (3-bromo-4-hydroxy-5-(trifluoromethyl)phenyl)(2-ethylimidazo[1,2-a]pyrimidin-3-yl)methanone]

Compound | IC50, OAT1/IC50, hURAT1 (OAT1) | IC50, OAT3/IC50, hURAT1 (OAT3)
CCc1nc2ncc(F)cn2c1C(=O)c1cc(Br)c(O)c(Br)c1 [Example 4, (3,5-dibromo-4-hydroxyphenyl)(2-ethyl-6-fluoroimidazo[1,2-a]pyrimidin-3-yl)methanone] | 55.0 | 36.5
CCn1nc2ccc(F)cc2c1C(=O)c1cc(Br)c(O)c(Br)c1 [Example 9, (3,5-dibromo-4-hydroxyphenyl)(2-ethyl-5-fluoro-2H-indazol-3-yl) methanone] | 7.6 | 2.0
CCc1nc2ncc(F)cn2c1C(=O)c1cc(Br)c(O)c(C#N)c1 [Example 14, 3-bromo-5-(2-ethyl-6-fluoroimidazo[1,2-a]pyrimidine-3-carbonyl)-2-hydroxybenzonitrile] | 3.5 | 3.6
CCn1nc2ccncc2c1C(=O)c1cc(Br)c(O)c(Br)c1 [Example 16, (3,5-dibromo-4-hydroxyphenyl)(2-ethyl-2H-pyrazolo[4,3-c]pyridin-3-yl)methanone] | 17.4 | 3.1
CCc1nc2ncc(F)cn2c1C(=O)c1cc(Br)c(O)c(C(F)(F)F)c1 [Example 18, (3-bromo-4-hydroxy-5-(trifluoromethyl)phenyl)(2-ethyl-6-fluoroimidazo[1,2-a]pyrimidin-3-yl)methanone] | 24.5 | 16.2
CCc1nc2ncccn2c1C(=O)c1cc(Br)c(O)c(C#N)c1 [Example 22, 3-bromo-5-(2-ethylimidazo[1,2-a]pyrimidine-3-carbonyl)-2-hydroxybenzonitrile] | 2.0 | 1.4
